Test results as given in ChEMBL document CHEMBL1201862, “PubChem BioAssay data set” (2004).
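Cultured in 96-well plates, cells were exposed to test compound for 48 hours across five concentrations. GI50 marks 50% less growth.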 Active and inactive are the calls of the source. Cut-off read from the data, not from the text of the source: active = GI50 up to about 1.1 µM and inactive = higher.

Legend:
Assay in all cases: NCI anticancer screen, dose series, 48 h
[1] = test system: UACC-62
[2] = test system: RXF 393
[3] = test system: OVCAR-8
[4] = test system: DLD-1
[5] = test system: UACC-257
[6] = test system: UO-31
[7] = test system: DMS-273
[8] = test system: CCRF-CEM
[9] = test system: HCT-116
[10] = test system: SK-MEL-28
[11] = test system: MOLT-4
[12] = test system: SK-OV-3
[13] = test system: XF498
[14] = test system: SK-MEL-5
[15] = test system: HT-29
[16] = test system: A498
[17] = test system: COLO 205
[18] = test system: HL-60
[19] = test system: TK-10
[20] = test system: KM-20L2
[21] = test system: A549
[22] = test system: OVCAR-5
[23] = test system: OVCAR-4
[24] = test system: K562
[25] = test system: NCI-H226
[26] = test system: LOX IMVI
[27] = test system: M14
[28] = test system: EKVX
[29] = test system: SNB-19
[30] = test system: OVCAR-3
[31] = test system: HOP-62
[32] = test system: M19-MEL
[33] = test system: CAKI-1
[34] = test system: SK-MEL-2
[35] = test system: SNB-75
[36] = test system: NCI-H522
[37] = test system: SF-295
[38] = test system: SN12C
[39] = test system: HCC 2998
[40] = test system: NCI-H460
[41] = test system: LXFL 529
[42] = test system: U-251
[43] = test system: 786-0
[44] = test system: KM12
[45] = test system: HCT-15
[46] = test system: SF-539
[47] = test system: SF-268
[48] = test system: DMS-114
[49] = test system: IGROV-1
[50] = test system: NCI-H23
[51] = test system: Malme-3M
[52] = test system: ACHN
[53] = test system: SW-620
[54] = test system: RPMI-8226
[55] = test system: SNB-78
[56] = test system: HOP-92
[57] = test system: RXF 631

Cn1c2ccccc2c2[nH]cc3nc4ccccc4c-3c21
GI50 [1]: 18.5 µM (inactive)
GI50 [2]: 16.1 µM (inactive)
GI50 [3]: 20.3 µM (inactive)
GI50 [4]: > 100 µM (inactive)
GI50 [5]: 22.3 µM (inactive)
GI50 [6]: 13 µM (inactive)
GI50 [7]: 16.2 µM (inactive)
GI50 [8]: 30.8 µM (inactive)
GI50 [9]: 12.6 µM (inactive)
GI50 [10]: 14.8 µM (inactive)
GI50 [11]: 23.8 µM (inactive)
GI50 [12]: 24.3 µM (inactive)
GI50 [13]: 17.4 µM (inactive)
GI50 [14]: 18.1 µM (inactive)
GI50 [15]: 15.8 µM (inactive)
GI50 [16]: 18.7 µM (inactive)
GI50 [17]: 16.9 µM (inactive)
GI50 [18]: 20.6 µM (inactive)
GI50 [19]: 22.3 µM (inactive)
GI50 [20]: 16.7 µM (inactive)
GI50 [21]: 22.6 µM (inactive)
GI50 [22]: 19.2 µM (inactive)
GI50 [23]: 15.6 µM (inactive)
GI50 [24]: 26.7 µM (inactive)
GI50 [25]: 22.4 µM (inactive)
GI50 [26]: 21.3 µM (inactive)
GI50 [27]: 17.9 µM (inactive)
GI50 [28]: 9.71 µM (inactive)
GI50 [29]: 26.1 µM (inactive)
GI50 [30]: 17.1 µM (inactive)
GI50 [31]: > 100 µM (inactive)
GI50 [32]: 19.7 µM (inactive)
GI50 [33]: 25.1 µM (inactive)
GI50 [34]: > 100 µM (inactive)
GI50 [35]: 19.5 µM (inactive)
GI50 [36]: 13.5 µM (inactive)
GI50 [37]: 22.1 µM (inactive)
GI50 [38]: 23.5 µM (inactive)
GI50 [39]: > 100 µM (inactive)
GI50 [40]: 15.5 µM (inactive)
GI50 [41]: 25.2 µM (inactive)
GI50 [42]: 18.2 µM (inactive)
GI50 [43]: > 100 µM (inactive)
GI50 [44]: 17 µM (inactive)
GI50 [45]: 19.9 µM
GI50 [46]: 18 µM (inactive)
GI50 [47]: 22.8 µM (inactive)
GI50 [48]: 22.9 µM (inactive)
GI50 [49]: 18 µM (inactive)
GI50 [50]: 17.1 µM (inactive)
GI50 [51]: > 100 µM (inactive)
GI50 [52]: 20.4 µM (inactive)
GI50 [53]: 24.7 µM (inactive)
GI50 [54]: 19.2 µM (inactive)
GI50 [55]: 24.5 µM (inactive)
GI50 [56]: 27.2 µM (inactive)
GI50 [57]: 29.5 µM (inactive)
